From patent publication US20240269170A1, “Treatment of Inflammatory Conditions or Diseases” (Queen Mary University of London, priority 2021, published 2024)

System: K/B×N serum induced arthritis in C57BL/6 mice
Test: Sustained K/B×N serum induced arthritis, transfer of monocytes from arthritic mice incubated with MCTR3
Format: in vivo, mouse
Details: monocytes incubated with 10 μM RG108 for 15 min before 1 nM MCTR3
Experimental: (C-D) K/B×N serum (100 μL, i.p.) was administered to C57BL/6 mice on day 0, 2 and 9 to induce and prolong inflammatory arthritis and, on day 12, mice were treated i.v. with 2×10^6 monocytes isolated from arthritic mice and incubated with either vehicle (PBS+0.1% EtOH) or 1 nM MCTR3 for 90 min at 37° C. Disease course was monitored daily by assessing C) clinical scores and D) oedema. Results are mean±SEM. and expressed as percent change from day of treatment. n=9 per group from two distinct experiments. (E) On day 22 hind paws were harvested joints were fixed, sectioned, stained using H&E stain and leukocyte infiltration evaluated. Top and centre panels present representative images from each experimental group; bottom panel Quantitation of the scores in each of the group. Results are mean±SEM. n=8 mice per group. Statistical differences were evaluated using Mann-Whitney U test. IFP=intrapatellar fat, M=meniscus, TB=Tibia, PF=Pannus formation, arrows denote leukocyte infiltration. (F-G) Paws were harvested 10 days after treatment and lipid mediator profiles were determined using LC-MS/MS-based lipid mediator profiling and evaluated using PLS-DA. (F) scores plot with highlighted regions denoting the clusters representing cells from each group (G) VIP scores for top 15 mediators. Each dot in the score plot represents a separate mouse.
FIG. 4: Regulation of joint reparative pathways in mice receiving MCTR3-trained monocytes. K/B×N serum (100 μL, i.p.) was administered to C57BL/6 mice on day 0, 2 and 9 to induce and prolong inflammatory arthritis and, on day 12, mice were treated i.v. with 2×10^6 monocytes isolated from arthritic mice and incubated with either vehicle (PBS+0.1% EtOH) or 1 nM MCTR3 for 90 min. (A-C) On day 22 hind paws were harvested, fixed, and stained to evaluate A) proteoglycan content using Safranin-O staining; B) Col 2 and C) Col X expression was evaluated using immunofluorescence. Left panels present representative images from each experimental group, right panels provide a quantitative evaluation of the staining. Results are expressed as percent change vs Monocyte group. n=7-8 mice per group. Statistical differences were evaluated using Wilcoxon signed rank test. (D-I) Hind paws were also collected on day 22 to evaluate the expression of the indicated genes was evaluated using quantitative realtime PCR. Results are from n=5 mice per group. Statistical differences were evaluated using Mann Whitney-U test.
FIG. 5: MCTR3 reprograms the arthritic monocyte-derive macrophage transcriptome. A-B) Arthritis was induced and prolonged in C57BL/6 mice by administering 100 μL K/B×N serum i.p. on day 0, 2 and 9. Mice were treated on day 12 i.v. with 2×10^6 monocytes isolated from arthritic mice and incubated either with vehicle (PBS+0.1% DMSO) or 10 μM RG108, a DNMT inhibitor, for 15 min and then with a vehicle (PBS+0.1% EtOH) or 1 nM MCTR3 for 90 min (37° C.). Disease course was monitored daily by assessing A) clinical scores and B) oedema. Results are mean±SEM and expressed as percent change from day of treatment. n=10 mice per group. Statistical differences were evaluated using Two-way ANOVA. (C-E) K/B×N serum (100 μL, i.p.) was administered to mice on days 0, 2 and 9 to induce and prolong inflammatory arthritis. On day 12, mice were treated i.v. with 2×10^6 monocytes isolated from arthritic mice that were previously incubated with either vehicle (PBS+0.1% EtOH) or 1 nM MCTR3 for 90 min. Cells were isolated from paw joints on day 22, sorted for CD45^+ cells and single cell RNA sequencing was performed. […] Results are from n=4 mice per group. (F-G) Monocytes were isolated from human healthy volunteers, these cells were then incubated with GM-CSF (7 days, 37° C.) then with either Vehicle or MCTR3 (1 nM, 37° C.). Cells were lysed and the phosphoproteome determined using mass spectrometry. […]

## O=C(O)C(Cc1c[nH]c2ccccc12)N1C(=O)c2ccccc2C1=O (centres unmarked) [RG108]
  protective actions of MCTR3 (ability of reprogrammed monocytes to regulate joint inflammation): abolished
Day 22
  ability of MCTR3 to upregulate Arg-1 in PKH67+ CD64+ cells in vivo: reversed
